From patent US8580965B2, “Substituted sulfonamide compounds” (Gruenenthal GmbH, priority 2006, dated 2013)

Target: T1, human B1R receptor (bradykinin 1 receptor) (Homo sapiens, UniProt P46663)
T1 construct: host or cells: CHO K1 cells (hB1R cells)
T1 sequence (P46663 1-353): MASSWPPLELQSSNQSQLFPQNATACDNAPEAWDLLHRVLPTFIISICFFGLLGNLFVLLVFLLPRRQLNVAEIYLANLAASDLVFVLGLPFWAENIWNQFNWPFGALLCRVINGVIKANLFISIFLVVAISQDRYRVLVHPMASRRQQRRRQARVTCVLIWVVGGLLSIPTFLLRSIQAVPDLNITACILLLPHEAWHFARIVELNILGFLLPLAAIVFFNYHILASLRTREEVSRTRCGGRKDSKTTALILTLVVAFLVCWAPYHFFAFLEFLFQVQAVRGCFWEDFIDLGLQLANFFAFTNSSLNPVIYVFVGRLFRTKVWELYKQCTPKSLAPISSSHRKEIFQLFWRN
Experiment: FLIPR Ca2+ assay (Fluo-4) on CHO K1 cells stably transfected with the human B1R gene; % activation and % inhibition at 10 μM
Type: cell-based
Settings: CHO-K1, test substance 10 μM; CHO K1 hB1R cells; Ca2+ inflow after 0.5 nM Lys-Des-Arg9-bradykinin; read-out: B1R antagonism, human [10 μM] % inhibition
Experimental: The agonistic or antagonistic action of substances can be quantified on the bradykinin receptor 1 (B1R) of the species human and rat with ectopically expressing cell lines (CHO K1 cells) and with the aid of a Ca^2+-sensitive dye (Fluo-4) using a fluorescent imaging plate reader (FLIPR). The indication in % activation is based on the Ca^2+ signal after addition of Lys-Des-Arg^9-bradykinin (0.5 nM) or Des-Arg^9-bradykinin (100 nM). Antagonists result in a suppression of the Ca^2+ influx following administration of the agonist. The % inhibition in comparison with the maximum achievable inhibition is indicated.
Functional Investigation on the Bradykinin 1 Receptor (B1R)
The agonistic or antagonistic action of substances can be determined on the bradykinin 1 receptor (B1R) of the human and rat species with the following assay. According to this assay, the Ca^2+ inflow through the channel is quantified with the aid of a Ca^2+-sensitive dyes (Fluo-4 type, Molecular Probes Europe BV, Leiden, The Netherlands) in a fluorescent imaging plate reader (FLIPR, Molecular Devices, Sunnyvale, USA).
Chinese Hamster Ovary cells (CHO K1 cells) which are stably transfected with the human B1R gene (hB1R cells, Euroscreen s.a., Gosselies, Belgium) or the B1R gene of the rat (rB1R cells, Axxam, Milan, Italy) are used. For functional investigations, these cells are plated-out on black 96-well plates with a clear base (BD Biosciences, Heidelberg, Germany) in a density of 20,000-25,000 cells/well. Overnight, the cells are incubated at 37° C. and 5% CO2 in culture medium (hB1R cells: Nutrient Mixture Ham's F12, Gibco Invitrogen GmbH, Karlsruhe, Germany; rB1R cells: D-MEM/F12, Gibco Invitrogen, Karlsruhe, Germany) with 10 vol. % FBS (foetal bovine serum, Gibco Invitrogen GmbH, Karlsruhe, Germany). On the following day, the cells are loaded with 2.13 μM Fluo-4 (Molecular Probes Europe BV, Leiden, The Netherlands) in HBSS buffer (Hank's buffered saline solution, Gibco Invitrogen GmbH, Karlsruhe, Germany) […] (Sigma-Aldrich, Taufkirchen, Germany) and 10 mM HEPES (Sigma-Aldrich, Taufkirchen, Germany) for 60 min at 37° C. The plates are subsequently washed 2× with HBSS buffer, and HBSS buffer which additionally contains 0.1% BSA (bovine serum albumin; Sigma-Aldrich, Taufkirchen, Germany), 5.6 mM glucose and 0.05% gelatine (Merck KGaA, Darmstadt, Germany) is added. After a further incubation of 20 minutes at room temperature, the plates are inserted into the FLIPR for Ca^2+ measurement. The Ca^2+-dependent fluorescence is measured here before and after addition of substances (λex=488 nm, λem=540 nm). The quantification is effected by measurement of the highest fluorescence intensity (FC, fluorescence counts) over time.
The FLIPR protocol comprises 2 additions of substance. Test substances (10 μM) are first pipetted on to the cells and the Ca^2+ inflow is compared with the control (hB1R: Lys-Des-Arg^9-bradykinin 0.5 nM; rB1R: Des-Arg^9-bradykinin 100 nM). The value in % activation based on the Ca^2+ signal after addition of Lys-Des-Arg^9-bradykinin (0.5 nM) or Des-Arg^9-bradykinin (100 nM) is obtained therefrom. After incubation for 10 minutes, 0.5 nM Lys-Des-Arg^9-bradykinin (hB1R) or 100 nM Des-Arg^9-bradykinin (rB1R) are applied and the inflow of Ca^2+ is likewise determined. Antagonists lead to a suppression of the Ca^2+ inflow. % inhibition compared with the maximum inhibition which can be achieved is calculated. The compounds show a good activity on the human and on the rat receptor. The following data were determined by way of example: […]

Question: For `COc1ccc(S(=O)(=O)N2CCCCC2CCOCC(=O)N2CCC(O)(Cc3ccccc3)CC2)cc1` (stereo not drawn) [Example 29, 1-(4-benzyl-4-hydroxy-piperidin-1-yl)-2-{2-[1-(4-methoxy-phenylsulfonyl)-piperidin-2-yl]-ethoxy}-ethanone], which inhibition at 10 µM is on record?
Answer: The inhibition at 10 µM was 7.66%.

Question: Which inhibition at 10 µM does the source give for `COc1ccc(S(=O)(=O)N2CCCC2COCC(=O)N2CCC(O)(Cc3ccccc3)CC2)cc1` (stereo not drawn) [Example 57, 1-(4-benzyl-4-hydroxy-piperidin-1-yl)-2-[1-(4-methoxy-phenylsulfonyl)-pyrrolidin-2-ylmethoxy]-ethanone] here?
Answer: Its inhibition at 10 µM is -16.2%.

Question: How did the inhibition at 10 µM turn out when `COc1ccc(S(=O)(=O)N(C)CCOCC(=O)N2CCC(O)(Cc3ccccc3)CC2)cc1OC` [Example 16, N-{2-[2-(4-benzyl-4-hydroxy-piperidin-1-yl)-2-oxo-ethoxy]-ethyl}-3,4-dimethoxy-N-methyl-phenylsulfonamide] was run?
Answer: Its inhibition at 10 µM is 31.2%.

Question: How did the inhibition at 10 µM turn out when `O=C(COC1CCN(S(=O)(=O)c2ccccc2)CC1)N1CCC(O)(c2cccnc2)CC1` [Example 46, 2-(1-phenylsulfonyl-piperidin-4-yloxy)-1-(4′-hydroxy-3′,4′,5′,6′-tetrahydro-2′H-[3,4′]bipyridinyl-1′-yl)-ethanone] was run?
Answer: Its inhibition at 10 µM is -3.51%.

Question: For `O=C(COC1CCN(S(=O)(=O)c2ccccc2)C1)N1CCC(O)(Cc2ccccc2)CC1` (stereo not drawn) [Example 22, 2-(1-phenylsulfonyl-pyrrolidin-3-yloxy)-1-(4-benzyl-4-hydroxy-piperidin-1-yl)-ethanone], which inhibition at 10 µM is on record?
Answer: The inhibition at 10 µM was 20.2%.

Question: Which inhibition at 10 µM does the source give for `COc1cc(C)c(S(=O)(=O)N2CCN(CCOCC(=O)N3CCC(O)(c4ccccn4)CC3)CC2)c(C)c1C` [Example 48, 1-(4′-hydroxy-3′,4′,5′,6′-tetrahydro-2′H-[2,4′]bipyridinyl-1′-yl)-2-{2-[4-(4-methoxy-2,3,6-trimethyl-phenylsulfonyl)-piperazin-1-yl]-ethoxy}-ethanone] here?
Answer: The inhibition at 10 µM was -4.32%.

Question: For `COc1cc(C)c(S(=O)(=O)N(CCOCC(=O)N2CCC(O)(Cc3ccccc3)CC2)Cc2ccccc2)c(C)c1C` [Example 13, N-benzyl-N-{2-[2-(4-benzyl-4-hydroxy-piperidin-1-yl)-2-oxo-ethoxy]-ethyl}-4-methoxy-2,3,6-trimethyl-phenylsulfonamide], which inhibition at 10 µM is on record?
Answer: The inhibition at 10 µM was 50.7%.

Question: `O=C(COCC1CCCN1S(=O)(=O)c1ccc(Cl)c(Cl)c1)N1CCC(O)(c2cccnc2)CC1` (stereo not drawn) [Example 19, 2-[1-(3,4-dichloro-phenylsulfonyl)-pyrrolidin-2-ylmethoxy]-1-(4′-hydroxy-3′,4′,5′,6′-tetrahydro-2′H-[3,4′]bipyridinyl-1′-yl)-ethanone] was tested. Which inhibition at 10 µM did it give?
Answer: The inhibition at 10 µM was 23.2%.

Question: How did the inhibition at 10 µM turn out when `CN(CCOCC(=O)N1CCC(O)(Cc2ccccc2)CC1)S(=O)(=O)c1ccccc1` [Example 39, N-{2-[2-(4-benzyl-4-hydroxy-piperidin-1-yl)-2-oxo-ethoxy]-ethyl}-N-methyl-phenylsulfonamide] was run?
Answer: The inhibition at 10 µM was 2.99%.

Question: With `COc1cc(C)c(S(=O)(=O)N2CCC(OCCC(=O)N3CCC(O)(c4ccccc4)CC3)C2)c(C)c1` (stereo not drawn) [Example 188, 1-(4-hydroxy-4-phenylpiperidin-1-yl)-3-(1-(4-methoxy-2,6-dimethylphenylsulfonyl)pyrrolidin-3-yloxy)propan-1-one] as the molecule, how does the inhibition at 10 µM read?
Answer: Its inhibition at 10 µM is 52.7%.

Question: `COc1cc(C)c(S(=O)(=O)N2CCCC(OCCC(=O)N3CCC(O)(c4ccc(Br)cc4)CC3)C2)c(C)c1` (stereo not drawn) [Example 185, 1-(4-(4-bromophenyl)-4-hydroxypiperidin-1-yl)-3-(1-(4-methoxy-2,6-dimethylphenylsulfonyl)piperidin-3-yloxy)propan-1-one] was tested. Which inhibition at 10 µM did it give?
Answer: The inhibition at 10 µM was 54.6%.

Question: How did the inhibition at 10 µM turn out when `O=C(COCC1CCCCN1S(=O)(=O)c1ccc(Cl)c(Cl)c1)N1CCC(O)(c2ccccn2)CC1` (stereo not drawn) [Example 25, 2-[1-(3,4-dichloro-phenylsulfonyl)-piperidin-2-ylmethoxy]-1-(4′-hydroxy-3′,4′,5′,6′-tetrahydro-2′H-[2,4′]bipyridinyl-1′-yl)-ethanone] was run?
Answer: Its inhibition at 10 µM is 10%.

Question: Which inhibition at 10 µM does the source give for `COc1cc(C)c(S(=O)(=O)N2CCC(OCCC(=O)N3CCC(O)(c4cccc(C(F)(F)F)c4)CC3)C2)c(C)c1` (stereo not drawn) [Example 190, 1-(4-hydroxy-4-(3-(trifluoromethyl)phenyl)piperidin-1-yl)-3-(1-(4-methoxy-2,6-dimethylphenylsulfonyl)pyrrolidin-3-yloxy)propan-1-one] here?
Answer: The inhibition at 10 µM was 103%.

Question: `COc1cc(C)c(S(=O)(=O)N2CCC(CCOCC(=O)N3CCC(O)(Cc4ccccc4)CC3)CC2)c(C)c1C` [Example 14, 1-(4-benzyl-4-hydroxy-piperidin-1-yl)-2-{2-[1-(4-methoxy-2,3,6-trimethyl-phenylsulfonyl)-piperidin-4-yl]-ethoxy}-ethanone] was tested. Which inhibition at 10 µM did it give?
Answer: The inhibition at 10 µM was 43.2%.

Question: With `COc1cc(C)c(S(=O)(=O)N2CCCCC2COCCC(=O)N2CCC(O)(c3ccccc3)CC2)c(C)c1` (stereo not drawn) [Example 183, 1-(4-hydroxy-4-phenylpiperidin-1-yl)-3-((1-(4-methoxy-2,6-dimethylphenylsulfonyl)piperidin-2-yl)methoxy)propan-1-one] as the molecule, how does the inhibition at 10 µM read?
Answer: Its inhibition at 10 µM is 68.2%.

Question: For `COc1cc(C)c(S(=O)(=O)N2CCCC(OCC(=O)N3CCC(O)(Cc4ccccc4)CC3)C2)c(C)c1C` (stereo not drawn) [Example 11, 1-(4-benzyl-4-hydroxy-piperidin-1-yl)-2-[1-(4-methoxy-2,3,6-trimethyl-phenylsulfonyl)-piperidin-3-yloxy]-ethanone], which inhibition at 10 µM is on record?
Answer: Its inhibition at 10 µM is 70.9%.

Question: For `COc1cc(C)c(S(=O)(=O)N2CCC(OCCC(=O)N3CCC(O)(c4ccc(Br)cc4)CC3)C2)c(C)c1` (stereo not drawn) [Example 187, 1-(4-(4-bromophenyl)-4-hydroxypiperidin-1-yl)-3-(1-(4-methoxy-2,6-dimethylphenylsulfonyl)pyrrolidin-3-yloxy)propan-1-one], which inhibition at 10 µM is on record?
Answer: The inhibition at 10 µM was 99.9%.

Question: How did the inhibition at 10 µM turn out when `COc1cc(C)c(S(=O)(=O)N2CCCCC2COCCC(=O)N2CCC(O)(c3ccc(Cl)c(C(F)(F)F)c3)CC2)c(C)c1` (stereo not drawn) [Example 180, 1-(4-(4-chloro-3-(trifluoromethyl)phenyl)-4-hydroxypiperidin-1-yl)-3-((1-(4-methoxy-2,6-dimethylphenylsulfonyl)piperidin-2-yl)methoxy)propan-1-one] was run?
Answer: Its inhibition at 10 µM is 39.9%.

Question: With `COc1cc(C)c(S(=O)(=O)N2CCC(OCCC(=O)N3CCC(O)(Cc4ccccc4)CC3)C2)c(C)c1` (stereo not drawn) [Example 189, 1-(4-benzyl-4-hydroxypiperidin-1-yl)-3-(1-(4-methoxy-2,6-dimethylphenylsulfonyl)pyrrolidin-3-yloxy)propan-1-one] as the molecule, how does the inhibition at 10 µM read?
Answer: Its inhibition at 10 µM is 54.2%.

Question: For `O=C(COC1CCCN(S(=O)(=O)c2ccccc2)C1)N1CCC(O)(Cc2ccccc2)CC1` (stereo not drawn) [Example 27, 2-(1-phenylsulfonyl-piperidin-3-yloxy)-1-(4-benzyl-4-hydroxy-piperidin-1-yl)-ethanone], which inhibition at 10 µM is on record?
Answer: Its inhibition at 10 µM is 9.32%.

Question: With `COc1cc(C)c(S(=O)(=O)N2CCCCC2COCCC(=O)N2CCC(O)(c3ccc(Cl)cc3)CC2)c(C)c1` (stereo not drawn) [Example 181, 1-(4-(4-chlorophenyl)-4-hydroxypiperidin-1-yl)-3-((1-(4-methoxy-2,6-dimethylphenylsulfonyl)piperidin-2-yl)methoxy)propan-1-one] as the molecule, how does the inhibition at 10 µM read?
Answer: The inhibition at 10 µM was 75.4%.
